Laboratory results as given in the NIST ThermoML archive (doi:10.1021/je100598x).
± gives the expanded uncertainty stated by the source.

Assay: cn = amount concentration of the nth substance listed, in mol/dm3
Conditions: 101 kPa, Liquid, Direct current cell with electrodes

CCCCCCCCCCCC[N+](CCC)(CCC)CCC.[Br-] [dodecyltripropylammonium bromide] + O
electrical conductivity [S/m]
Conditions | 288.15 K | 293.15 K | 298.15 K | 303.15 K | 308.15 K | 313.15 K | 318.15 K
c1 = 0.001055 | 0.00819 ± 8.2e-05 | 0.00909 ± 9.1e-05 | 0.01006 ± 0.0001 | 0.01131 ± 0.00011 | 0.01244 ± 0.00012 | 0.0137 ± 0.00014 | 0.0147 ± 0.00015
c1 = 0.002089 | 0.0153 ± 0.0002 | 0.01734 ± 0.00017 | 0.01942 ± 0.00019 | 0.0217 ± 0.0002 | 0.0238 ± 0.0002 | 0.0261 ± 0.0003 | 0.0282 ± 0.0003
c1 = 0.003101 | 0.0222 ± 0.0002 | 0.025 ± 0.0003 | 0.0282 ± 0.0003 | 0.0316 ± 0.0003 | 0.0345 ± 0.0003 | 0.038 ± 0.0004 | 0.0412 ± 0.0004
c1 = 0.004092 | 0.0285 ± 0.0003 | 0.0326 ± 0.0003 | 0.0367 ± 0.0004 | 0.041 ± 0.0004 | 0.0449 ± 0.0005 | 0.0496 ± 0.0005 | 0.0538 ± 0.0005
c1 = 0.005063 | 0.0346 ± 0.0004 | 0.0398 ± 0.0004 | 0.0448 ± 0.0005 | 0.0501 ± 0.0005 | 0.0546 ± 0.0005 | 0.0605 ± 0.0006 | 0.0657 ± 0.0007
c1 = 0.006015 | 0.0405 ± 0.0004 | 0.0467 ± 0.0005 | 0.0527 ± 0.0005 | 0.059 ± 0.0006 | 0.0643 ± 0.0006 | 0.0712 ± 0.0007 | 0.0774 ± 0.0008
c1 = 0.006948 | 0.0461 ± 0.0005 | 0.0533 ± 0.0005 | 0.0599 ± 0.0006 | 0.0675 ± 0.0007 | 0.0741 ± 0.0007 | 0.0816 ± 0.0008 | 0.0886 ± 0.0009
c1 = 0.007862 | 0.0516 ± 0.0005 | 0.0594 ± 0.0006 | 0.0674 ± 0.0007 | 0.0757 ± 0.0008 | 0.083 ± 0.0008 | 0.0912 ± 0.0009 | 0.0991 ± 0.001
c1 = 0.008759 | 0.0566 ± 0.0006 | 0.0658 ± 0.0007 | 0.0743 ± 0.0007 | 0.0832 ± 0.0008 | 0.0913 ± 0.0009 | 0.1001 ± 0.001 | 0.109 ± 0.0011
c1 = 0.009639 | 0.0619 ± 0.0006 | 0.0714 ± 0.0007 | 0.0804 ± 0.0008 | 0.0896 ± 0.0009 | 0.0982 ± 0.001 | 0.108 ± 0.0011 | 0.117 ± 0.0012
c1 = 0.0105 | 0.0661 ± 0.0007 | 0.0761 ± 0.0008 | 0.0846 ± 0.0008 | 0.0945 ± 0.0009 | 0.1035 ± 0.001 | 0.1136 ± 0.0011 | 0.1242 ± 0.0012
c1 = 0.01135 | 0.0702 ± 0.0007 | 0.0797 ± 0.0008 | 0.0883 ± 0.0009 | 0.0984 ± 0.001 | 0.108 ± 0.0011 | 0.118 ± 0.0012 | 0.13 ± 0.0013
c1 = 0.01218 | 0.0731 ± 0.0007 | 0.0825 ± 0.0008 | 0.0919 ± 0.0009 | 0.1018 ± 0.001 | 0.1117 ± 0.0011 | 0.1228 ± 0.0012 | 0.1348 ± 0.0013
c1 = 0.01319 | 0.0759 ± 0.0008 | 0.0851 ± 0.0009 | 0.0953 ± 0.001 | 0.106 ± 0.0011 | 0.116 ± 0.0012 | 0.128 ± 0.0013 | 0.1405 ± 0.0014
c1 = 0.01419 | 0.0783 ± 0.0008 | 0.0883 ± 0.0009 | 0.0985 ± 0.001 | 0.109 ± 0.0011 | 0.1203 ± 0.0012 | 0.1325 ± 0.0013 | 0.146 ± 0.0015
c1 = 0.01516 | 0.0806 ± 0.0008 | 0.0906 ± 0.0009 | 0.1015 ± 0.001 | 0.1128 ± 0.0011 | 0.1242 ± 0.0012 | 0.137 ± 0.0014 | 0.1512 ± 0.0015
c1 = 0.01657 | 0.0837 ± 0.0008 | 0.0942 ± 0.0009 | 0.106 ± 0.0011 | 0.118 ± 0.0012 | 0.13 ± 0.0013 | 0.1433 ± 0.0014 | 0.157 ± 0.0016
c1 = 0.01794 | 0.0866 ± 0.0009 | 0.0976 ± 0.001 | 0.11 ± 0.0011 | 0.1224 ± 0.0012 | 0.135 ± 0.0014 | 0.149 ± 0.0015 | 0.165 ± 0.0017
c1 = 0.01927 | 0.0895 ± 0.0009 | 0.1009 ± 0.001 | 0.1137 ± 0.0011 | 0.127 ± 0.0013 | 0.1404 ± 0.0014 | 0.155 ± 0.0016 | 0.1719 ± 0.0017
c1 = 0.02055 | 0.0921 ± 0.0009 | 0.1041 ± 0.001 | 0.117 ± 0.0012 | 0.1312 ± 0.0013 | 0.145 ± 0.0015 | 0.161 ± 0.0016 | 0.178 ± 0.0018
c1 = 0.02179 | 0.0947 ± 0.0009 | 0.107 ± 0.0011 | 0.1211 ± 0.0012 | 0.135 ± 0.0014 | 0.15 ± 0.0015 | 0.166 ± 0.0017 | 0.1843 ± 0.0018
c1 = 0.023 | 0.0973 ± 0.001 | 0.1101 ± 0.0011 | 0.1245 ± 0.0012 | 0.139 ± 0.0014 | 0.1545 ± 0.0015 | 0.1709 ± 0.0017 | 0.1906 ± 0.0019
c1 = 0.02417 | 0.0996 ± 0.001 | 0.113 ± 0.0011 | 0.128 ± 0.0013 | 0.1433 ± 0.0014 | 0.159 ± 0.0016 | 0.175 ± 0.0018 | 0.196 ± 0.002
